Experiments:
[1] = Clearance in CD-1 mouse at 0.5 mg/kg, iv by LC-MS/MS analysis; assay type: ADME, organism-based; details: in vivo
[2] = MRT in CD-1 mouse at 0.5 mg/kg, iv by LC-MS/MS analysis; assay type: ADME, organism-based; details: in vivo
[3] = AUCinf in CD-1 mouse at 2 mg/kg, po by LC-MS/MS analysis; assay type: ADME, organism-based; parameters: time infinity, dose 2 mg/kg, route po; details: in vivo
in vitro [4] = details: mouse, liver microsomes
[5] = Half life in CD-1 mouse at 2 mg/kg, po by LC-MS/MS analysis; assay type: ADME, organism-based; details: in vivo
[6] = Tmax in CD-1 mouse at 2 mg/kg, po by LC-MS/MS analysis; assay type: ADME, organism-based; details: in vivo
[7] = Cmax in CD-1 mouse at 2 mg/kg, po by LC-MS/MS analysis; assay type: ADME, organism-based; parameters: dose 2 mg/kg, route po; details: in vivo
[8] = Half life in CD-1 mouse at 0.5 mg/kg, iv by LC-MS/MS analysis; assay type: ADME, organism-based; details: in vivo
[9] = AUCinf in CD-1 mouse at 0.5 mg/kg, iv by LC-MS/MS analysis; assay type: ADME, organism-based; parameters: time infinity, dose 0.5 mg/kg, route iv; details: in vivo
[10] = Cmax in CD-1 mouse at 0.5 mg/kg, iv by LC-MS/MS analysis; assay type: ADME, organism-based; parameters: dose 0.5 mg/kg, route iv; details: in vivo
in vitro [11] = details: human, Caco-2
[12] = MRT in CD-1 mouse at 2 mg/kg, po by LC-MS/MS analysis; assay type: ADME, organism-based; details: in vivo
in vitro [13] = details: human, liver microsomes
[14] = Oral bioavailability in CD-1 mouse at 2 mg/kg by LC-MS/MS analysis; assay type: ADME, organism-based; details: in vivo
[15] = Volume of distribution at steady state in CD-1 mouse at 0.5 mg/kg, iv by LC-MS/MS analysis; assay type: ADME, organism-based; details: in vivo, read-out: Vdss
in vitro [16] = details: human, Caco-2; remark: listed apart in the source

Cc1[nH]nc(-c2ccncc2)c1-c1ccc(-c2cccc(S(N)(=O)=O)c2)c(C2CC2)c1
clearance [1]: 33.5 mL/min/kg
MRT [2]: 1.01 h
AUC(0-inf) [3]: 2.55 µM·h
half-life at 40 min (in vitro [4]): 0.5 h
half-life [5]: 1.25 h
Tmax [6]: 1 h
Cmax [7]: 580 nM
half-life [8]: 0.8 h
AUC(0-inf) [9]: 0.58 µM·h
Cmax [10]: 580 nM
Papp B→A at 2 h, 10 µM (in vitro [11]): 27 ×10⁻⁶ cm/s
MRT [12]: 3.01 h
half-life at 40 min (in vitro [13]): 2.65 h
bioavailability [14]: 111%
Vd [15]: 2 L/kg
Papp A→B at 2 h, 10 µM (in vitro [16]): 8.78 ×10⁻⁶ cm/s

Reference: ChEMBL document CHEMBL5131546, “Discovery of 1H-Pyrazole Biaryl Sulfonamides as Novel G2019S-LRRK2 Kinase Inhibitors” (ACS Med Chem Lett, 2022)
